Data as given in BindingDB's records for doi:10.7270/Q2GH9GBT (Nmmlsc, 2008).
Counter-ions that a name gives are not always drawn.

Each compound was assayed against T1, Bcl-2-like protein 10 [11-204] (Homo sapiens, UniProt Q9HD36) (assay: regulators of Bim-Bcl-B binding, dose response, biochemical, multiplexed, bead-based flow cytometry, human (AID 1327)). Details: not given.
T1 construct: 11-204
T1 sequence (Q9HD36 whole entry): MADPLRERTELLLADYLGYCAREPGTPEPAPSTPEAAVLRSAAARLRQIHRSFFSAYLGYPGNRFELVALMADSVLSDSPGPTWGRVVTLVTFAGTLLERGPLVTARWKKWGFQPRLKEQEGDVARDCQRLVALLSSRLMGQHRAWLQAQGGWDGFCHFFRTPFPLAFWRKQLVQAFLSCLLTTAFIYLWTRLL
`COc1ccccc1Cn1nnc2c(=O)[nH]c(C3CCN(C(=O)c4ccc(C)cc4)CC3)nc21` [3-[(2-methoxyphenyl)methyl]-5-[1-(4-methylphenyl)carbonylpiperidin-4-yl]-2H-[1,2,3]triazolo[4,5-d]pyrimidin-7-one] showed an EC50 of 12.2 µM.
Work on `COc1cc(C=NNC(=O)CN(Cc2ccco2)S(=O)(=O)c2ccccc2)ccc1O` [N-(2-furanylmethyl)-N-[2-[[(E)-(3-methoxy-4-oxo-1-cyclohexa-2,5-dienylidene)methyl]hydrazo]-2-oxoethyl]benzenesulfonamide] yielded an EC50 of 7.81 µM.
`COc1ccc(CC(=O)Nc2ccc(-c3nc4cc(C)ccc4o3)c(O)c2)cc1OC` [2-(3,4-dimethoxyphenyl)-N-[(4Z)-3-keto-4-(5-methyl-3H-1,3-benzoxazol-2-ylidene)cyclohexa-1,5-dien-1-yl]acetamide] showed an EC50 of 14.8 µM.
For `COc1ccccc1Nc1nc(-c2c(C)nc3ncccn23)cs1` [(2-methoxyphenyl)-[4-(2-methylimidazo[1,2-a]pyrimidin-3-yl)thiazol-2-yl]amine;hydrobromide], the EC50 was 0.82 µM.
`CN(C)[C@@H]1C(=O)C(C(=O)NCN2CCCC2)C(=O)[C@@]2(O)C(=O)C3C(=O)c4c(O)cccc4[C@@](C)(O)C3CC12` (stereo partly drawn) [(2Z,4S,6S,12aS)-4-(dimethylamino)-6,10,11,12a-tetrahydroxy-2-[hydroxy-(1-pyrrolidinylmethylamino)methylidene]-6-methyl-4,4a,5,5a-tetrahydrotetracene-1,3,12-trione] gave an EC50 of 14.3 µM.
`Clc1ccc2c(N=NCc3ccc(Br)cc3)ccnc2c1` [N-[(4-bromophenyl)methylideneamino]-7-chloranyl-quinolin-4-amine] was tested, and the EC50 was 20.9 µM.
For `Cc1cc(N)ccc1N1CCCC1` [3-methyl-4-(1-pyrrolidinyl)aniline;hydrochloride], the EC50 was 2.13 µM.
Work on `Cc1ccc(C=NNC(=O)CSc2nnc(-c3ccc(Cl)cc3)n2-c2ccccc2)o1` [SMR000218122] yielded an EC50 of 9.23 µM.
`O=S1(=O)N=C(N(CCO)N=Cc2ccncc2)c2ccccc21` [MLS000682942] was tested, and the EC50 was 11.8 µM.
Work on `COc1cc(CN=Nc2nn3cnnc3c3ccccc23)ccc1O` [(4E)-2-methoxy-4-[[2-([1,2,4]triazolo[3,4-a]phthalazin-6-yl)hydrazinyl]methylidene]cyclohexa-2,5-dien-1-one] yielded an EC50 of 1.07 µM.

Same assay, conditions: inactive by the depositor's call
Compound `Cc1cc(C)nc(SCc2cc(=O)c(OC(=O)c3ccc(Cl)c([N+](=O)[O-])c3)co2)n1` [4-chloro-3-nitrobenzoic acid [6-[[(4,6-dimethyl-2-pyrimidinyl)thio]methyl]-4-oxo-3-pyranyl] ester] has an EC50 of 1.51 µM.
`Cc1ccc(C)n1-c1cccc(C(=O)O)c1` showed an EC50 of 49.5 µM.
`O=C(COc1ccccc1)N1CCN(c2ncnc3c2cnn3-c2ccccc2)CC1` [2-Phenoxy-1-[4-(1-phenyl-1H-pyrazolo[3,4-d]pyrimidin-4-yl)-piperazin-1-yl]-ethanone] gave an EC50 of 19.2 µM.
For `CN(N=Cc1cccnc1)C1=NS(=O)(=O)c2ccccc21` [SMR000207578], the EC50 was 20 µM.
`COc1ccc(C)cc1-n1c(=O)c2ccccc2c2ccccc2c1=O` [MLS000682999] showed an EC50 of 15.6 µM.
`Cc1cc(-c2nnc3n2N=C(c2ccc(-c4ccccc4)cc2)CS3)[nH]n1` [MLS000082991] was tested, and the EC50 was 36.4 µM.
`CC(=O)c1ccc(NC(=O)c2ccc3nc(-c4ccco4)c(-c4ccco4)nc3c2)cc1` [N-(4-acetylphenyl)-2,3-di-2-furyl-6-quinoxalinecarboxamide] showed an EC50 of 33.7 µM.
Compound `COc1ccc(C2=Nn3c(nnc3-c3ccco3)SC2)cc1OC` [6-(3,4-Dimethoxy-phenyl)-3-furan-2-yl-7H-[1,2,4]triazolo[3,4-b][1,3,4]thiadiazine] has an EC50 of 1.15 µM.
In the case of `CN(N=C/C=C/c1ccccc1)C1=NS(=O)(=O)c2ccccc21` [(1E,2E)-3-phenylacrylaldehyde (1,1-dioxido-1,2-benzisothiazol-3-yl)(methyl)hydrazone], the EC50 is reported as 1.94 µM.
With `Cc1cccc(C=NN(CCO)C2=NS(=O)(=O)c3ccccc32)c1` [2-[(1,1-dioxo-1,2-benzothiazol-3-yl)-[(3-methylphenyl)methylideneamino]amino]ethanol] the EC50 was 38.7 µM.
Work on `O=S1(=O)N=C(N(CCO)N=C/C=C/c2ccccc2)c2ccccc21` yielded an EC50 of 11.7 µM.
`c1ccc(-c2nc(N3CCCCCC3)c3ccccc3n2)nc1` [SMR000046752] gave an EC50 of 16.7 µM.
Compound `Nc1c(C(=O)NC2CC2)sc2nc3c(c(-c4ccco4)c12)CC/C3=C/c1ccco1` [SMR000259554] has an EC50 of 10.4 µM.
`O=C(Nc1ccccc1)c1ccc2nc(-c3ccco3)c(-c3ccco3)nc2c1` [2,3-di-2-furyl-N-phenyl-6-quinoxalinecarboxamide] was tested, and the EC50 was 33.8 µM.
`CN1CCN(C2=C(Cl)C(=O)C(c3cnc(N4CCCCC4)s3)=C(Cl)C2=O)CC1` showed an EC50 of 3.42 µM.
`CN(N=Cc1ccncc1)C1=NS(=O)(=O)c2ccccc21` [isonicotinaldehyde (1,1-dioxido-1,2-benzisothiazol-3-yl)(methyl)hydrazone] gave an EC50 of 1.82 µM.
In the case of `Cc1cc(C)cc(NS(=O)(=O)c2ccc3c(c2)c(=O)n(C)c(=O)n3C)c1` [MLS000521783], the EC50 is reported as 17.4 µM.
For `Cc1ccnc(SCc2cc(=O)c(OC(=O)c3ccc(Cl)c([N+](=O)[O-])c3)co2)n1` [MLS000696790], the EC50 was 6.62 µM.
`O=C(CSc1ccc2nnc(-c3ccccn3)n2n1)Nc1nccs1` [2-[[3-(2-pyridinyl)-[1,2,4]triazolo[4,3-b]pyridazin-6-yl]thio]-N-(2-thiazolyl)acetamide] was tested, and the EC50 was 5.54 µM.
`COc1ccccc1-n1c(-c2ccccc2)c[nH]c1=S` [MLS001007615] gave an EC50 of 32.1 µM.
With `CCOC(=O)c1c(O)nc2ccc(Cl)c3c2c1-c1ccccc1C3=O` [MLS000704595] the EC50 was 1.32 µM.
`CSc1nnc2c3cc(C)ccc3n(Cc3ccccc3)c2n1` [SMR000046397] showed an EC50 of 30.7 µM.
`COc1ccc(OC)c(-n2c(=O)c3ccccc3c3ccccc3c2=O)c1` [SMR000236434] gave an EC50 of 16.4 µM.
Work on `Cc1cc2n(c1)CCn1c(C)ccc1-2` [MLS000104384] yielded an EC50 of 11.8 µM.
`Cc1ccc(C=NN(C)C2=NS(=O)(=O)c3ccccc32)o1` [N-methyl-N-[(5-methyl-2-furanyl)methylideneamino]-1,1-dioxo-1,2-benzothiazol-3-amine] showed an EC50 of 7.38 µM.
In the case of `Cc1cc(OCc2cn3cccnc3n2)ccc1Cl` [2-[(4-chloranyl-3-methyl-phenoxy)methyl]imidazo[1,2-a]pyrimidine], the EC50 is reported as 17.3 µM.
For `CCOC(=O)c1nc(Nc2ccc(C(=O)OC)cc2)c2ccccc2n1` [ethyl 4-(4-methoxycarbonylanilino)quinazoline-2-carboxylate], the EC50 was 11.2 µM.
Work on `Nc1c(C(=O)NCC2CCCO2)sc2nc3c(c(-c4ccco4)c12)CC/C3=C\c1ccco1` (stereo not given) [SMR000259502] yielded an EC50 of 13.7 µM.
Compound `CCOC(=O)c1c2c3c(cccc3[nH]c1=O)C(=O)c1ccccc1-2` has an EC50 of 3.53 µM.
`Cc1ccc(OCc2cn3cccnc3n2)cc1` [MLS000723172] showed an EC50 of 30.6 µM.
`O=S1(=O)N=C(N(CCO)N=Cc2ccccc2)c2ccccc21` [2-[(benzylideneamino)-(1,1-dioxo-1,2-benzothiazol-3-yl)amino]ethanol] gave an EC50 of 12.8 µM.
Work on `O=C(Nc1cccc(Cl)c1)Nc1ccnc(-c2cccnc2)n1` [SMR000337179] yielded an EC50 of 1.11 µM.
In the case of `CCOC(=O)C1CCN(C(=O)Nc2ccc3nc(-c4ccco4)c(-c4ccco4)nc3c2)CC1` [MLS000113285], the EC50 is reported as 46.4 µM.
`c1ccc(Nc2cccc(Nc3ccccc3)n2)cc1` [N,N'-diphenyl-2,6-pyridinediamine] showed an EC50 of 7.82 µM.
For `O=C(Nc1ccncc1)c1cc2ccccc2o1` [MLS000109378], the EC50 was 62.1 µM.
